# Data taken from article PMC7234998, “Quantification of Colistin in Plasma by Liquid Chromatography-Tandem Mass Spectrometry: Application to a Pharmacokinetic Study” (Scientific Reports, 2020).
# Positions of bridges follow the written chain, without caps; N, C: chain ends. Non-standard residues stand in square brackets, D forms with d. Residues, ends and D or L forms follow the SMILES beside them. *: point of attachment. X1 = CC[C@H](C)CCCCC(=O)*; Dab = NCC[C@H](N)C(=O)O
# Tests used:
# [1] = in vivo, cited from earlier work
# Description: However, colistin sulphate has been reported to be well absorbed after an oral administration in infants. […] The standards and quality control samples concentrations were selected based on the therapeutic range of colistin. The expected colistin serum levels according to the antimicrobial reference laboratory assay service are 5–15 mg/L and 2–4 mg/L for the peak and tough concentrations, respectively. […] Choosing the animal species to perform the pharmacokinetic study was based on the similarity of colistin pharmacokinetic profile between animal species and humans. […] The species that has the closest pharmacokinetic profile to humans are rats[43]–[45].
# [2] = rats, cited from earlier work
# Text: Following the validation of the present analytical method, the method was applied to estimate the pharmacokinetic profile of colistin in experimental rats. Choosing the animal species to perform the pharmacokinetic study was based on the similarity of colistin pharmacokinetic profile between animal species and humans. […] The species that has the closest pharmacokinetic profile to humans are rats[43]–[45]. […] This is because of a distribution phase that occurs before the decline in the colistin concentration. This finding is in agreement with previous reports[43],[44],[49]. In the present study, we observed that colistin concentration declined rapidly over 180–240 min which is consistent with earlier findings[45],[49]. […] In the present study, the Vd of colistin was 2.45 ± 1.30 L/kg in ...
# [3] = Freeze-thaw stability of colistin in rat plasma QC samples; conditions: −70 °C to 25 °C after 24 hours, five cycles, n = 4; for Found concentration after freeze-thaw: LC-MS/MS, mean ± S.D., SD
# Description: (§1) Colistin sulfate was prepared by dissolving 5.5 mg of the powder in 5 ml water to make a stock solution of 1 mg/ml of colistin. PMB sulfate solution of 1 mg/ml was also prepared by dissolving 5.8 mg of PMB sulfate powder in 5 ml water. Both solutions were stored at −70 °C. Calibration standards and quality controls were prepared by spiking different amounts of colistin sulfate stock solution in plasma. Aliquots of colistin sulfate were further diluted to provide standard concentrations of 0.5, 1, 2, 5, 10, 15, and 20 μg/mL (equivalent to: 78, 156, 312, 780, 1560, 2340 and 3120 ng/ml of colistin A and 353, 706, 1412, 3350, 7060, 10590 and 14120 ng/ml of colistin B) whereas, the concentrations of 1.5, 3.5, 7.5 and 17.5 μg/mL (which contained 234, 546, 1170 and 2730 ng/ml of colistin A and 1059, 2471, 5295 and 12355 ng/ml of colistin B) were considered as quality controls. The calibration standards and quality controls were aliquoted (150 μL) into 0.5 ml Eppendorf tubes and stored at −70 °C pending analysis.
# (§2) To 100 μl rat plasma sample, 5 μl of 500 μg/ml IS was added and followed by addition of 400 μl of 50:50 (v/v) methanol-TCA (10%). The samples were vortex-mixed for 1 min, rota-mixed for 10 min at 40 rpm and then centrifuged at 12,000 rpm for 10 min. Following centrifugation, 400 µl of the supernatant was collected and re-extracted with solid phase extraction (SPE) using SPE (Oasis HLB 1 cc, 30 mg) cartridges. First, the cartridges were conditioned with 500 μl of methanol then 500 μl of water. After that, 400 μl of the supernatant was transferred and then washed with 500 μl of water. The tubes were changed and then the samples were eluted with 150 μl of methanol: water: formic acid (80:19:1%, v/v/v) solution. The elution step was repeated twice, and then 250 μl of the solution was transferred to the low volume inserts and 20 μl of this solution was injected into the LC-MS system.
# (§3) Various types of stability tests including freeze-thaw stability and long-term stability were assessed. The freeze-thaw stability test was performed by removing the four QC samples out of the storage temperature (−70 °C) and keeping them at room temperature (25 °C) until thawing and then aliquots of the samples were analyzed. After that, the samples were again returned back for freezing in the same storage conditions for 12 to 24 h. The freeze-thaw cycles were repeated five times and 4 replicates of the analytes were assayed. In addition, a long-term stability test was performed to ensure that the stability of the samples for a time that exceeds the interval between the first sample collection and the last sample analysis. Four aliquots of low, medium and high concentrations (QC) were kept for 20 days in the same temperature used to store samples regularly at the lab (−70 °C) then analyzed and compared to the nominal concentration of freshly prepared QC samples. Moreover, the stability in the autosampler (4 °C) was assessed by keeping the processed samples under this condition and assayed periodically at different times for up to 24 hours. In addition, benchtop stability test was performed by keeping the samples at room temperature (25 °C) for six hours and analyzing them during this time. The mean value results of stability tests were calculated and compared to the nominal concentrations.
# [4] = Autosampler stability of processed colistin rat plasma samples at 4 °C; conditions: 4 °C for 24 hours, n = 4; for Found concentration in autosampler stability study: LC-MS/MS, mean ± S.D., SD
# Description: as §1, §2, §3
# [5] = Benchtop stability of colistin in rat plasma samples at room temperature; conditions: 25 °C for 6 hours, n = 4; for Found concentration in benchtop stability study: LC-MS/MS, mean ± S.D., SD
# Description: as §1, §2, §3
# [6] = Long-term stability of colistin in rat plasma QC samples at −70 °C; conditions: 20 days; for Found concentration after long-term storage: LC-MS/MS, mean ± S.D., n = 5, SD; for Bias% from nominal concentration after long-term storage: n = 5
# Description: as §1, §2, §3
# [7] = Pharmacokinetic study of colistin in rats after IV colistin sulfate, plasma LC-MS/MS, non-compartmental analysis; conditions: male, Sprague Dawley, rat, 15 mg/kg
# Description: as §2
# Male Sprague Dawley® (MSD) rats (21 weeks ± 3 days of age) with a body weight of 450–550 g [supplied by the Animal Resource Center (ARC), Health Sciences Center (HSC), Kuwait University] were used to estimate the pharmacokinetic profile of colistin. The animals (n = 8) were housed in 12 h/12 h light/dark cycle. […] All the animals were subjected to left jugular vein cannulation, IV drug administration, and subsequent blood sampling. All surgical procedures were carried out under strict aseptic conditions. In addition, all surgical instruments and materials were autoclaved, all solutions were sterile and the surgical procedure was performed with the aid of surgical microscope (Leica wild M690). Animal body temperatures were maintained around 37.6 °C (rectal) by placing the animals on an electronic heating pad throughout the surgical procedure as well as the post-surgical recovery period. About 350 µl of rat blood sample was collected from each animal. From this sample, 50 µl of blood sample was transferred to a capillary tube, sealed with the sealant clay at one end and centrifuged to calculate the Packed Cell Volume (PCV); i.e., Hematocrit. The remaining rat blood sample (300 µl) was centrifuged at 9000 X g for 10 min and aliquots of 100 µl of plasma sample was collected and stored at −70 °C pending analysis.
# Colistin was quantified in the biological samples by the present LC-MS/MS method and then the pharmacokinetic parameters (t1/2, CL, Vd, AUC) were estimated by non-compartmental method employing Kinetica® software, version 5.1 (Thermo Fisher Scientific, Waltham, USA).
# [8] = rat plasma QC 1.5 μg/mL colistin (nominal 234 ng/ml colistin A, 1059 ng/ml colistin B)
# [9] = rat plasma QC 3.5 μg/mL colistin (nominal 546 ng/ml colistin A, 2471 ng/ml colistin B)
# [10] = rat plasma QC 7.5 μg/mL colistin (nominal 1170 ng/ml colistin A, 5295 ng/ml colistin B)
# [11] = rat plasma QC 17.5 μg/mL colistin (nominal 2730 ng/ml colistin A, 12355 ng/ml colistin B)
# [12] = processed rat plasma QC 1.5 μg/mL colistin (nominal 234 ng/ml colistin A, 1059 ng/ml colistin B)
# [13] = processed rat plasma QC 3.5 μg/mL colistin (nominal 546 ng/ml colistin A, 2471 ng/ml colistin B)
# [14] = processed rat plasma QC 7.5 μg/mL colistin (nominal 1170 ng/ml colistin A, 5295 ng/ml colistin B)
# [15] = processed rat plasma QC 17.5 μg/mL colistin (nominal 2730 ng/ml colistin A, 12355 ng/ml colistin B)
compound,measurement,setting,value
colistimethate sodium [CMS],Vd at steady state,[1]; human,0.34 ± 0.10 L/kg
same,t1/2,[1]; human,2.07 ± 0.867 h
same,absorption after intramuscular injection,[1],rapidly absorbed
same,"absorption through burns, inflamed skin or mucosal membranes",[1],not absorbed
same,absorption through the GIT,[1],poorly absorbed
"CC[C@H](C)CCCCC(=O)N[C@@H](CCN)C(=O)N[C@H](C(=O)N[C@@H](CCN)C(=O)N[C@H]1CCNC(=O)[C@H]([C@@H](C)O)NC(=O)[C@H](CCN)NC(=O)[C@H](CCN)NC(=O)[C@H](CC(C)C)NC(=O)[C@@H](CC(C)C)NC(=O)[C@H](CCN)NC1=O)[C@@H](C)O [Colistin A, colistin A] (X1-[Dab]T[Dab][Dab][Dab][dL]L[Dab][Dab]T; lactam 4-C)",CL of the individual components,"[2]; Sivanesan and co-workers, ref 45 (sentence ends with 41)",2.75 ± 0.54 mL/min/kg
same,t1/2 of the major components,[2],1.37 ± 0.515 h
same,Found concentration after freeze-thaw,[3]; [8],265.4 ± 35.10 ng/mL
same,Bias% from nominal concentration after freeze-thaw,[3]; [8],13.42%
same,Found concentration after freeze-thaw,[3]; [9],615.27 ± 30.29 ng/mL
same,Bias% from nominal concentration after freeze-thaw,[3]; [9],12.69%
same,Found concentration after freeze-thaw,[3]; [10],1208.93 ± 77.51 ng/mL
same,Bias% from nominal concentration after freeze-thaw,[3]; [10],3.33%
same,Found concentration after freeze-thaw,[3]; [11],2551.83 ± 177.97 ng/mL
same,Bias% from nominal concentration after freeze-thaw,[3]; [11],−6.53%
same,Found concentration in autosampler stability study,[4]; [12],231.18 ± 6.22 ng/mL
same,Bias% from nominal concentration in autosampler stability study,[4]; [12],−1.21%
same,Found concentration in autosampler stability study,[4]; [13],516.95 ± 53.28 ng/mL
same,Bias% from nominal concentration in autosampler stability study,[4]; [13],−5.32%
same,Found concentration in autosampler stability study,[4]; [14],1034.9 ± 38.64 ng/mL
same,Bias% from nominal concentration in autosampler stability study,[4]; [14],−11.55%
same,Found concentration in autosampler stability study,[4]; [15],2917.93 ± 341.07 ng/mL
same,Bias% from nominal concentration in autosampler stability study,[4]; [15],6.88%
same,Found concentration in benchtop stability study,[5]; [8],120.275 ± 50.32 ng/mL
same,Bias% from nominal concentration in benchtop stability study,[5]; [8],−48.6%
same,Found concentration in benchtop stability study,[5]; [9],592.47 ± 488.56 ng/mL
same,Bias% from nominal concentration in benchtop stability study,[5]; [9],8.51%
same,Found concentration in benchtop stability study,[5]; [10],1047.6 ± 202.94 ng/mL
same,Bias% from nominal concentration in benchtop stability study,[5]; [10],−10.46%
same,Found concentration in benchtop stability study,[5]; [11],5045 ± 3076.10 ng/mL
same,Bias% from nominal concentration in benchtop stability study,[5]; [11],84.8%
same,Found concentration after long-term storage,[6]; [8],237.24 ± 5.64 ng/mL
same,Bias% from nominal concentration after long-term storage,[6]; [8],1.39%
same,Found concentration after long-term storage,[6]; [9],520.76 ± 19.46 ng/mL
same,Bias% from nominal concentration after long-term storage,[6]; [9],−4.62%
same,Found concentration after long-term storage,[6]; [10],1134.44 ± 26.11 ng/mL
same,Bias% from nominal concentration after long-term storage,[6]; [10],−3.04%
same,Found concentration after long-term storage,[6]; [11],2719 ± 50.20 ng/mL
same,Bias% from nominal concentration after long-term storage,[6]; [11],−0.40%
same,level at 0.5 h,[7],4110 ng/mL
colistin sulphate,absorption after oral administration in infants,[1]; po,well absorbed
same,absorption from the gastrointestinal tract (GIT),[1]; po,poorly absorbed
same,maximum serum concentration,[1],0.13 mg/L
same,time of maximum serum concentration,[1],1.5 h
